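Compound exposure: 48 hours, 5 concentrations, 96-well plates. Here, GI50 denotes the concentration required for 50% inhibition of growth. Definition used: TGI = concentration required for complete inhibition of growth.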
Legend:
Assay in all cases: inhibition of tumour cell growth, NCI panel, 48 h
HOP-62 NSCLC = system: HOP-62 NSCLC
OVCAR-3 ovarian = system: OVCAR-3 ovarian
NCI-H522 lung = system: NCI-H522 lung
M14 melanoma = system: M14 melanoma
SF-268 CNS = system: SF-268 CNS
HCT-116 colon = system: HCT-116 colon
MDA-MB-231 breast = system: MDA-MB-231 breast
HOP-92 NSCLC = system: HOP-92 NSCLC
A498 renal = system: A498 renal
RXF 393 renal = system: RXF 393 renal
U251 CNS = system: U251 CNS
BT-549 breast = system: BT-549 breast
HL-60(TB) leukemia = system: HL-60(TB) leukemia
SF-295 CNS = system: SF-295 CNS
SK-MEL-5 melanoma = system: SK-MEL-5 melanoma
CAKI-1 renal = system: CAKI-1 renal
NCI-H460 lung = system: NCI-H460 lung
SK-OV-3 ovarian = system: SK-OV-3 ovarian
HCC-2998 colon = system: HCC-2998 colon
MDA-MB-435 = system: MDA-MB-435
KM12 colon = system: KM12 colon
DU-145 prostate = system: DU-145 prostate
T-47D breast = system: T-47D breast
UACC-62 melanoma = system: UACC-62 melanoma
OVCAR-5 ovarian = system: OVCAR-5 ovarian
SW-620 colon = system: SW-620 colon
MOLT-4 leukemia = system: MOLT-4 leukemia
NCI-H226 lung = system: NCI-H226 lung

Q: For `Cc1ccc(C(=O)/C(=C\c2ccc([N+](=O)[O-])cc2)S(=O)Cc2ccc(F)cc2)cc1` (stereo not given), which TGI (HOP-62 NSCLC) is on record?
A: The TGI was 6300 nM.

Q: What about the GI50 (OVCAR-3 ovarian) of the same compound?
A: The GI50 was 1570 nM.

Q: What about the TGI (OVCAR-3 ovarian) of the same compound?
A: Its TGI is 2960 nM.

Q: And the GI50 (NCI-H522 lung)?
A: The GI50 was 1550 nM.

Q: What about the TGI (NCI-H522 lung) of the same compound?
A: Its TGI is 3010 nM.

Q: And the GI50 (M14 melanoma)?
A: The GI50 was 1440 nM.

Q: And the TGI (M14 melanoma)?
A: The TGI was 2890 nM.

Q: What about the GI50 (SF-268 CNS) of the same compound?
A: The GI50 was 1690 nM.

Q: What about the TGI (SF-268 CNS) of the same compound?
A: The TGI was 3360 nM.

Q: What about the GI50 (HCT-116 colon) of the same compound?
A: The GI50 was 499 nM.

Q: And the TGI (HCT-116 colon)?
A: Its TGI is 1790 nM.

Q: And the GI50 (MDA-MB-231 breast)?
A: The GI50 was 1830 nM.

Q: And the TGI (MDA-MB-231 breast)?
A: Its TGI is 3680 nM.

Q: And the GI50 (HOP-92 NSCLC)?
A: Its GI50 is 1930 nM.

Q: What about the TGI (HOP-92 NSCLC) of the same compound?
A: The TGI was 3870 nM.

Q: What about the GI50 (A498 renal) of the same compound?
A: The GI50 was 2480 nM.

Q: What about the TGI (A498 renal) of the same compound?
A: Its TGI is 6040 nM.

Q: What about the GI50 (RXF 393 renal) of the same compound?
A: The GI50 was 1780 nM.

Q: And the TGI (RXF 393 renal)?
A: The TGI was 3280 nM.

Q: And the GI50 (U251 CNS)?
A: The GI50 was 1660 nM.

Q: What about the TGI (U251 CNS) of the same compound?
A: The TGI was 3220 nM.

Q: And the GI50 (BT-549 breast)?
A: The GI50 was 1520 nM.

Q: And the TGI (BT-549 breast)?
A: The TGI was 2880 nM.

Q: What about the GI50 (HL-60(TB) leukemia) of the same compound?
A: Its GI50 is 1670 nM.

Q: What about the TGI (HL-60(TB) leukemia) of the same compound?
A: Its TGI is 5020 nM.

Q: And the GI50 (SF-295 CNS)?
A: Its GI50 is 1940 nM.

Q: What about the TGI (SF-295 CNS) of the same compound?
A: Its TGI is 5050 nM.

Q: What about the GI50 (SK-MEL-5 melanoma) of the same compound?
A: Its GI50 is 1760 nM.

Q: What about the TGI (SK-MEL-5 melanoma) of the same compound?
A: Its TGI is 3320 nM.

Q: What about the GI50 (CAKI-1 renal) of the same compound?
A: Its GI50 is 1770 nM.

Q: What about the TGI (CAKI-1 renal) of the same compound?
A: Its TGI is 3840 nM.

Q: And the GI50 (NCI-H460 lung)?
A: Its GI50 is 1890 nM.

Q: And the TGI (NCI-H460 lung)?
A: The TGI was 3850 nM.

Q: What about the GI50 (SK-OV-3 ovarian) of the same compound?
A: Its GI50 is 10800 nM.

Q: What about the TGI (SK-OV-3 ovarian) of the same compound?
A: The TGI was 23200 nM.

Q: And the GI50 (HCC-2998 colon)?
A: The GI50 was 1770 nM.

Q: What about the TGI (HCC-2998 colon) of the same compound?
A: The TGI was 3240 nM.

Q: And the GI50 (MDA-MB-435)?
A: Its GI50 is 1760 nM.

Q: And the TGI (MDA-MB-435)?
A: Its TGI is 3650 nM.

Q: And the GI50 (KM12 colon)?
A: The GI50 was 2120 nM.

Q: And the TGI (KM12 colon)?
A: Its TGI is 4780 nM.

Q: What about the GI50 (DU-145 prostate) of the same compound?
A: Its GI50 is 1490 nM.

Q: And the TGI (DU-145 prostate)?
A: Its TGI is 2860 nM.

Q: And the GI50 (T-47D breast)?
A: The GI50 was 1910 nM.

Q: What about the TGI (T-47D breast) of the same compound?
A: The TGI was 5510 nM.

Q: What about the GI50 (UACC-62 melanoma) of the same compound?
A: Its GI50 is 1530 nM.

Q: And the TGI (UACC-62 melanoma)?
A: Its TGI is 2970 nM.

Q: And the GI50 (OVCAR-5 ovarian)?
A: Its GI50 is 1960 nM.

Q: What about the TGI (OVCAR-5 ovarian) of the same compound?
A: The TGI was 3930 nM.

Q: And the GI50 (SW-620 colon)?
A: The GI50 was 1560 nM.

Q: And the TGI (SW-620 colon)?
A: The TGI was 3260 nM.

Q: And the GI50 (MOLT-4 leukemia)?
A: The GI50 was 1300 nM.

Q: What about the TGI (MOLT-4 leukemia) of the same compound?
A: The TGI was 5580 nM.

Q: And the GI50 (NCI-H226 lung)?
A: The GI50 was 3480 nM.

Q: And the TGI (NCI-H226 lung)?
A: Its TGI is 13100 nM.

— PubChem BioAssay (NCI)
